Measured values as given in patent US10653667B2, “Drug for preventing, treating or preventing metastasis of giant cell tumor that occurs in bone or soft parts, chondrosarcoma, or osteosarcoma, local injection for arterial embolization, and artificial bone” (NIPPON CHEMIPHAR CO., LTD, priority 2013, dated 2020).
“Also recorded” adds a separate entry of the source. Where two headings read alike, the source gives them in different places.

How the values were obtained:
[1] = system: H-EMC-SS cells; assay: Proliferation of H-EMC-SS cells cultured beforehand with PPARγ siRNA or control siRNA; assay type: cell-based, human; conditions: 400 μM zaltoprofen
Protocol: Cells of the human chondrosarcoma cell line, H-EMC-SS, were cultured in the same manner as that of Example 1 until they became sub-confluent, PPARγ siRNA (Dharmacon, catalog number M-003436-02-0005) that selectively suppresses expression of PPARγ, or a control siRNA (Dharmacon, catalog number D-001206-14-05) was added to the cells at a final concentration of 100 nM, and the cells were cultured for 48 hours. Then, 400 μM zaltoprofen was added to the cells, color development was performed with Cell Counting Kit-8 (CCK-8, Dojindo) 24 hours thereafter, absorbance was measured at 450 nm further 3 hours thereafter, and the absorbance observed with the pretreatment with PPARγ siRNA was compared with the absorbance observed with the pretreatment with the control siRNA (FIG. 70).

[2] = system: cultured cells of giant cell tumor of tendon sheath (GCTT); assay: Suppression of cell proliferation of GCTT cultured cells (CCK-8); assay type: cell-based, human; conditions: drug at various concentrations, CCK-8 24 hours after addition
[3] = system: SW1353 cells; assay: Cell invasion of SW1353 cells (Matrigel Invasion Chamber); assay type: cell-based, human
Source text: For the analysis of cell invasion, Matrigel™ Invasion Chamber (BD Bioscience, catalog number 354480), which uses Matrigel as the matrix, was used. […] FIGS. 76 and 77 show microphotographs of invaded cells fixed by immersion into a 4% paraformaldehyde solution, and stained with hematoxylin (magnification is 200 times). From the microphotographs of FIGS. 76 and 77, the patterns of the invaded cells can be understood.

[4] = system: PPARγ expression in cells of pigmented villonodular synovitis (PVNS); assay: PPARγ immunostaining of PVNS cells; assay type: cell-based, human; conditions: zaltoprofen 400 μM or troglitazone 200 μM
[5] = system: giant cell tumor of bone (GCTB); conditions: patient who had taken zaltoprofen for four weeks at 240 mg per day; inventors' earlier reports; cited from earlier work
[6] = system: H-EMC-SS cells; conditions: inventors' earlier reports; cited from earlier work
[7] = system: GCTB cultured cells (case 1, case 2); assay: Cell proliferation of GCTB cultured cells in the presence or absence of PPARγ siRNA; assay type: cell-based, human; conditions: 200 μM zaltoprofen or 60 μM troglitazone; 72 hours
[8] = system: OUMS-27 cells; assay: Proliferation of OUMS-27 cells cultured beforehand with or without GW9662; assay type: cell-based, human; conditions: GW9662 1 μM, 60 minutes beforehand
Protocol: Cells of the human chondrosarcoma cell line, OUMS-27, were cultured in the same manner as that of Example 1 until they became sub-confluent, then GW9662 (Sigma Aldrich, M6191), which is an irreversible antagonist of PPARγ, was added to the cells at a final concentration of 1 μM, and the cells were cultured for 60 minutes.

[9] = system: PPARγ expression in GCTB cultured cells; conditions: GCTB derived from a patient; inventors' earlier reports; cited from earlier work
[10] = system: GCTB cultured cells (case 1, case 2; GCT-1, GCT-2); assay: Suppression of cell proliferation of GCTB cultured cells (Cell Counting Kit-8, WST assay); assay type: cell-based, human; conditions: drug at various concentrations, CCK-8 24 hours after addition
Protocol: Tissue Int., 75:71-77), repeatedly subcultured until there were only spindle-shaped cells, which state was gradually attained from the state that there were also multinucleated giant cells observed in an early stage, and then used for the following analysis. […] Zaltoprofen was added as a solution in DMSO (dimethyl sulfoxide) prepared at a concentration 1000 times higher than the final concentration, and the solution was added in a volume of 0.1% of the volume of the medium. The same shall apply to the other drugs used in the following examples. […]

[11] = system: H-EMC-SS cells; assay: Caspase 3 staining of chondrosarcoma cell line H-EMC-SS (apoptosis); assay type: cell-based, human; conditions: zaltoprofen 200 μM, troglitazone 100 μM or pioglitazone 200 μM, compared with control
Protocol: Further, in the same manner as that of Example 1, cells of the chondrosarcoma cell line were subjected to caspase 3 staining, and presence or absence of apoptosis was analyzed (FIGS. 46 and 47).

[12] = system: cultured cells of human giant cell tumor of tendon sheath (GCTT); assay: Tunel assay and caspase 3 staining of GCTT cultured cells; assay type: cell-based; conditions: zaltoprofen 400 μM or troglitazone 200 μM, compared with control
Protocol: Further, the aforementioned GCTB cultured cells of the case 1 mentioned above were cultured on chamber cover slide glass, and zaltoprofen was added at different concentrations (100, and 200 μM) 24 hours afterward. Then, 8 hours and 24 hours afterward, the cells were fixed with 4% paraformaldehyde, staining with caspase 3 and Tunel assay were performed, and presence or absence of apoptosis was analyzed. In the Tunel assay, fragmented DNAs produced in the process of apoptosis were detected by the TdT-mediated dUTP nick end labeling method (TUNEL). Observation was performed with a fluorescence microscope (BZ-9000) of Keyence, and positive images for each concentration were quantitatively observed (FIGS. 2 to 5).
Further, in the same manner as that of Example 1, the cultured cells of human giant cell tumor of tendon sheath (GCTT) and the cultured cells of human pigmented villonodular synovitis (PVNS) were subjected to staining with caspase 3 and Tunel assay, and presence or absence of apoptosis was analyzed (FIGS. 18 to 25).

CC(C(=O)O)c1ccc2c(c1)CC(=O)c1ccccc1S2 (stereo not shown) [zaltoprofen]
suppression of proliferation of H-EMC-SS cells ([1]; 24 hours): suppressed proliferation
cell proliferation-suppressing action with PPARγ siRNA ([1]; H-EMC-SS, PPARγ siRNA 100 nM 48 hours): completely eliminated
suppression of cell proliferation (absorbance at 450 nm) [2]: cell proliferation was suppressed
cell injury seen in microphotographs of invaded cells ([3]; 100 μM troglitazone, 50 μM celecoxib or 400 μM zaltoprofen, cells only sparsely existed and rolled into small balls): cell injury was realized
cell invasion remaining (suppressed to) ([3]; 400 μM zaltoprofen, 24 hours): lower than 20%
suppression of cell invasion of SW1353 cells ([3]; all set concentrations, concentration-dependent, 24 hours): suppressed the cell invasion
expression of PPARγ (PPARγ-positive images) [4]: expression of PPARγ was successfully observed
giant cell tumor of bone in patient [5]: giant cell tumor of bone disappeared
suppression of proliferation of H-EMC-SS cells [6]: suppress proliferation
cell proliferation-inhibiting effect in the PPARγ siRNA addition group [7]: significantly suppressed
cell proliferation-suppressing action after preincubation with GW9662 [8]: reduced by GW9662
expression of PPARγ in the cells of giant cell tumor of bone [9]: promoted expression of PPARγ
suppression of cell proliferation (live cell count, absorbance at 450 nm) [10]: concentration-dependent suppression of the cell proliferation; also recorded: suppressed proliferation
caspase 3-positive ratio [11]: increased
Tunel-positive ratio [12]: increased
caspase 3-positive ratio [12]: increased
